Measured values published in patent US20210395239A1 (Hoffmann-La Roche Inc., priority 2018, published 2021).

Each compound was assayed against T1, human TLR8 (Homo sapiens, UniProt Q9NR97) (assay: HEK293-Blue-hTLR-8 cells assay (SEAP reporter, R848 stimulation)). Settings: HEK293-Blue-hTLR8 cells, R848, 20 hrs; read-out: HEK/hTLR8 IC50.
T1 construct: host or cells: HEK293 (HEK-Blue hTLR8)
T1 sequence (Q9NR97 27-1041): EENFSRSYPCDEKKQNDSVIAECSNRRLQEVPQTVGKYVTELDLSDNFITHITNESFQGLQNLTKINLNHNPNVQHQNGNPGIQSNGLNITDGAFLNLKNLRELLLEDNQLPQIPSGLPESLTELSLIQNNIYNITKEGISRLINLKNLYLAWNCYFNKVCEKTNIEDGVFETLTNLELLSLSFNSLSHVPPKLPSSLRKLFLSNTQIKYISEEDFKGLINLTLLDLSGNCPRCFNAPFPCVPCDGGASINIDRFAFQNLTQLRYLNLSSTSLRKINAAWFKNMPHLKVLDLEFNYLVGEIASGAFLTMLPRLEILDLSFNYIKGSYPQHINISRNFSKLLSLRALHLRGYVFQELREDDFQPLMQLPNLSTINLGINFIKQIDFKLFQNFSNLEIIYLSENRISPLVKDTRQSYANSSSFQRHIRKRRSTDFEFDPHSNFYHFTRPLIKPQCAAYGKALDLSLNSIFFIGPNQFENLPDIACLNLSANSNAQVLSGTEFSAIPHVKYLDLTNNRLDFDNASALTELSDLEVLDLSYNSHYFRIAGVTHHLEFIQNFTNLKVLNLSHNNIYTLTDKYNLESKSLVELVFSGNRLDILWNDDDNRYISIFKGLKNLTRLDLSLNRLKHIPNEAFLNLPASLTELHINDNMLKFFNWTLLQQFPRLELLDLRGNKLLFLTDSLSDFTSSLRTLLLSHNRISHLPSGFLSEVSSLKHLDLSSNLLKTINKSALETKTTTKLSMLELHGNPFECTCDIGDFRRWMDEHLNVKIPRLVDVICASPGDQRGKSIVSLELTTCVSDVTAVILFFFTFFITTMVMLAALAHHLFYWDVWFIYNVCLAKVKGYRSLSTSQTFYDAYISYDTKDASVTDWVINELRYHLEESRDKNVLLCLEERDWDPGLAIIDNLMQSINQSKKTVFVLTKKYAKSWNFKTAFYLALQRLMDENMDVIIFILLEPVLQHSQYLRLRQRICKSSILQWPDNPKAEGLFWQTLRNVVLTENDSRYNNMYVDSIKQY
Type: cell-based
Summary of the method: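 HEK293-Blue-hTLR8 cells (NF-κB/AP-1-driven SEAP) incubated 20 h at 37° C with serially diluted compound (1% DMSO) plus R848 stimulation. Supernatant SEAP measured with QUANTI-Blue, 2 h at 37° C, absorbance 620–655 nm.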

In order of rising IC50:
1. CO[C@H]1CN(c2nccc(N3CCN(C[C@H]4CN(c5ccc(C#N)c6ncccc56)C[C@@H](C)O4)CC3)n2)C[C@@H]1N [Example 26, 5-[(2S,6R)-2-[[4-[2-trans-(3-amino-4-methoxy-pyrrolidin-1-yl)pyrimidin-4-yl]piperazin-1-yl]methyl]-6-methyl-morpholin-4-yl]quinoline-8-carbonitrile]  3 nM
2. C[C@@H]1CN(c2ccc(C#N)c3ncccc23)C[C@H](CN2CCN(c3ccnc(N4CCC(N)CC4)n3)CC2)O1 [Example 27, 5-[(2S,6R)-2-[[4-[2-(4-amino-1-piperidyl)pyrimidin-4-yl]piperazin-1-yl]methyl]-6-methyl-morpholin-4-yl]quinoline-8-carbonitrile]  3 nM
3. C[C@@H]1CN(c2ccc(C#N)c3ncccc23)C[C@H](CN2CCN(c3ccnc(N4CCN(C(=O)CN(C)C)CC4)n3)CC2)O1 [Example 32, 5-[(2S,6R)-2-[[4-[2-[4-[2-(dimethylamino)acetyl]piperazin-1-yl]pyrimidin-4-yl]piperazin-1-yl]methyl]-6-methyl-morpholin-4-yl]quinoline-8-carbonitrile]  3 nM
4. Cc1cc(N2CCN(C[C@H]3CN(c4ccc(C#N)c5ncccc45)C[C@@H](C)O3)CC2)nc(N2CCNCC2)n1 [Example 47, 5-[(2R,6S)-2-methyl-6-[[4-(6-methyl-2-piperazin-1-yl-pyrimidin-4-yl)piperazin-1-yl]methyl]morpholin-4-yl]quinoline-8-carbonitrile]  3 nM
5. C[C@@H]1CN(c2ccc(C#N)c3ncccc23)C[C@H](CN2CCN(c3nc(N4CCNCC4)ncc3C#N)CC2)O1 [Example 50, 5-[(2S,6R)-2-[[4-(5-cyano-2-piperazin-1-yl-pyrimidin-4-yl)piperazin-1-yl]methyl]-6-methyl-morpholin-4-yl]quinoline-8-carbonitrile]  3 nM
6. C[C@@H]1CN(c2ccc(C#N)c3ncccc23)C[C@H](CN2CCN(c3ncc(C#N)c(N4CCNCC4)n3)CC2)O1 [Example 51, 5-[(2S,6R)-2-[[4-(5-cyano-4-piperazin-1-yl-pyrimidin-2-yl)piperazin-1-yl]methyl]-6-methyl-morpholin-4-yl]quinoline-8-carbonitrile]  3 nM
7. Cc1cc(N2CCN(C[C@H]3CN(c4ccc(C#N)c5ncccc45)C[C@@H](C)O3)CC2)nc(N2C[C@@H](N)[C@@H](F)C2)n1 [Example 55, 5-[(2S,6R)-2-[[4-[2-[(3R,4S)-3-amino-4-fluoro-pyrrolidin-1-yl]-6-methyl-pyrimidin-4-yl]piperazin-1-yl]methyl]-6-methyl-morpholin-4-yl]quinoline-8-carbonitrile]  3 nM
8. C[C@@H]1CN(c2ccc(C#N)c3ncccc23)C[C@H](CN2CCN(c3ccnc(NC4CNC4)n3)CC2)O1 [Example 28, 5-[(2S,6R)-2-[[4-[2-(azetidin-3-ylamino)pyrimidin-4-yl]piperazin-1-yl]methyl]-6-methyl-morpholin-4-yl]quinoline-8-carbonitrile]  4 nM
9. C[C@@H]1CN(c2ccc(C#N)c3ncccc23)C[C@H](CN2CCN(c3ccnc(N4CCN(C(=O)C5CCN5)CC4)n3)CC2)O1 (stereo partly drawn) [Example 34, 5-[(2S,6R)-2-[[4-[2-[4-(azetidine-2-carbonyl)piperazin-1-yl]pyrimidin-4-yl]piperazin-1-yl]methyl]-6-methyl-morpholin-4-yl]quinoline-8-carbonitrile]  4 nM
10. COc1cnc(N2CCNCC2)nc1N1CCN(C[C@H]2CN(c3ccc(C#N)c4ncccc34)C[C@@H](C)O2)CC1 [Example 48, 5-[(2S,6R)-2-[[4-(5-methoxy-2-piperazin-1-yl-pyrimidin-4-yl)piperazin-1-yl]methyl]-6-methyl-morpholin-4-yl]quinoline-8-carbonitrile]  4 nM
11. C[C@@H]1CN(c2ccc(C#N)c3ncccc23)C[C@H](CN2CCN(c3ccnc(N4CCN(C(=O)[C@@H]5CCCN5)CC4)n3)CC2)O1 [Example 31, 5-[(2R,6S)-2-methyl-6-[[4-[2-[4-[(2S)-pyrrolidine-2-carbonyl]piperazin-1-yl]pyrimidin-4-yl]piperazin-1-yl]methyl]morpholin-4-yl]quinoline-8-carbonitrile]  5 nM
12. C[C@@H]1CN(c2ccc(C#N)c3ncccc23)C[C@H](CN2CCN(c3ccnc(OCCN(C)C)n3)CC2)O1 [Example 30, 5-[(2S,6R)-2-[[4-[2-[2-(dimethylamino)ethoxy]pyrimidin-4-yl]piperazin-1-yl]methyl]-6-methyl-morpholin-4-yl]quinoline-8-carbonitrile]  6 nM
13. C[C@@H]1CN(c2ccc(C#N)c3ncccc23)C[C@H](CN2CCN(c3cccc(N4CCN(C)CC4)n3)CC2)O1 [Example 33, 5-[(2R,6S)-2-methyl-6-[[4-[6-(4-methylpiperazin-1-yl)-2-pyridyl]piperazin-1-yl]methyl]morpholin-4-yl]quinoline-8-carbonitrile]  7 nM
14. Cc1nc(N2CCNCC2)nc(N2CCN(C[C@H]3CN(c4ccc(C#N)c5ncccc45)C[C@@H](C)O3)CC2)c1C [Example 46, 5-[(2S,6R)-2-[[4-(5,6-dimethyl-2-piperazin-1-yl-pyrimidin-4-yl)piperazin-1-yl]methyl]-6-methyl-morpholin-4-yl]quinoline-8-carbonitrile]  9 nM
15. C[C@@H]1CN(c2ccc(C#N)c3ncccc23)C[C@H](CN2CCN(c3ccc(N4CC(N)C(F)C4)nc3)CC2)O1 (stereo partly drawn) [Example 44, 5-[(2S,6R)-2-[[4-[6-(3-amino-4-fluoro-pyrrolidin-1-yl)-3-pyridyl]piperazin-1-yl]methyl]-6-methyl-morpholin-4-yl]quinoline-8-carbonitrile]  10 nM
16. C[C@@H]1CN(c2ccc(C#N)c3ncccc23)C[C@H](CN2CCN(c3nc(N4CCNCC4)nc4ccccc34)CC2)O1 [Example 49, 5-[(2R,6S)-2-methyl-6-[[4-(2-piperazin-1-ylquinazolin-4-yl)piperazin-1-yl]methyl]morpholin-4-yl]quinoline-8-carbonitrile]  10 nM
17. C[C@@H]1CN(c2ccc(C#N)c3ncccc23)C[C@H](CN2CCN(c3cccc(N4CCC(N)CC4)n3)CC2)O1 [Example 36, 5-[(2S,6R)-2-[[4-[6-(4-amino-1-piperidyl)-2-pyridyl]piperazin-1-yl]methyl]-6-methyl-morpholin-4-yl]quinoline-8-carbonitrile]  11 nM
18. CO[C@H]1CN(c2cccc(N3CCN(C[C@H]4CN(c5ccc(C#N)c6ncccc56)C[C@@H](C)O4)CC3)n2)C[C@H]1N [Example 42, 5-[(2S,6R)-2-[[4-[6-[(3R,4S)-3-amino-4-methoxy-pyrrolidin-1-yl]-2-pyridyl]piperazin-1-yl]methyl]-6-methyl-morpholin-4-yl]quinoline-8-carbonitrile]  13 nM
19. C[C@@H]1CN(c2ccc(C#N)c3ncccc23)C[C@H](CN2CCN(c3cccc(N4CC(N)C(F)C4)n3)CC2)O1 (stereo partly drawn) [Example 40, 5-[(2S,6R)-2-[[4-[6-(3-amino-4-fluoro-pyrrolidin-1-yl)-2-pyridyl]piperazin-1-yl]methyl]-6-methyl-morpholin-4-yl]quinoline-8-carbonitrile]  17 nM
20. C[C@@H]1CN(c2ccc(C#N)c3ncccc23)C[C@H](CN2CCN(c3ccnc(N4CC(N)C4)n3)CC2)O1 [Example 23, 5-[(2S,6R)-2-[[4-[2-(3-aminoazetidin-1-yl)pyrimidin-4-yl]piperazin-1-yl]methyl]-6-methyl-morpholin-4-yl]quinoline-8-carbonitrile]  18 nM
21. C[C@@H]1CN(c2ccc(C#N)c3ncccc23)C[C@H](CN2CCN(c3cccc(N[C@H]4CNC[C@H]4F)n3)CC2)O1 [Example 37, 5-[(2S,6R)-2-[[4-[6-[[(3S,4R)-4-fluoropyrrolidin-3-yl]amino]-2-pyridyl]piperazin-1-yl]methyl]-6-methyl-morpholin-4-yl]quinoline-8-carbonitrile]  30 nM
22. C[C@@H]1CN(c2ccc(C#N)c3ncccc23)C[C@H](CN2CCN(c3cccc(N4CCNCC(O)C4)n3)CC2)O1 (stereo partly drawn) [Example 41, 5-[(2S,6R)-2-[[4-[6-(6-hydroxy-1,4-diazepan-1-yl)-2-pyridyl]piperazin-1-yl]methyl]-6-methyl-morpholin-4-yl]quinoline-8-carbonitrile]  32 nM
23. C[C@@H]1CN(c2ccc(C#N)c3ncccc23)C[C@H](CN2CCN(c3cccc(N[C@H]4CNC[C@@H]4F)n3)CC2)O1 [Example 35, 5-[(2S,6R)-2-[[4-[6-[[(3S,4S)-4-fluoropyrrolidin-3-yl]amino]-2-pyridyl]piperazin-1-yl]methyl]-6-methyl-morpholin-4-yl]quinoline-8-carbonitrile]  33 nM
